Experimental data reported in patent publication US9650339B2, “Inhibitors of histone demethylases” (Gilead Sciences, Inc., priority 2013, dated 2017).

test system: H3K4me3 mark; test: Histone lysine demethylase immunofluorescence assay, non-transfected U2OS cells; type: cell-based; conditions: Homo sapiens, staining of the H3K4me3 mark, 20 hours incubation with compound
Protocol: U2OS cells were harvested and seeded into multi well plates into media containing compound. The media used was DMEM containing 5% FBS and pen/strep. 20 hours after incubation of cells with compounds, the cells were washed once in PBS, harvested by fixation with formaldehyde 4% aqueous solution, and washed in PBS. Subsequently, the cells were permeabilized in PBS with 0.2% Triton X-100. Blocking was performed in PBS with 0.2% Triton X-100 and 5% FBS. The cells were incubated with αH3K4me3 primary antibody (Cell Signaling, #9751S) in blocking solution over night at 4° C. After incubation with primary antibody, the cells were washed with PBS, incubated with secondary antibody (Alexa fluor 594 goat anti rabbit IgG, Invitrogen, A11012) and Hoechst, (Sigma, 33342) in blocking solution, and washed again with PBS. Finally, PBS was added and high throughput imaging and analysis were performed by an IN Cell Analyzer 1000 (GE Healthcare). The IC50 values were based on an average measure of the staining of the H3K4me3 mark in cells.

IC50 | Compound
< 250 nM | N#CCNCc1ccnc(CNCCCCN(Cc2ccccc2)C2CC2)c1 [Compound 23, 2-[({2-[({4-[benzyl(cyclopropyl)-amino]butyl}amino)-methyl]pyridin-4-yl}methyl)amino]-acetonitrile]
< 250 nM | CN1CCCC1CCNCc1cc(/C=N/C2CC2)ccn1 (stereo not drawn) [Compound 40, N-{[2-({[2-(l-methylpyrrolidin-2-yl)ethyl]amino}methyl)-pyridin-4-yl]methylidene}-cyclopropanamine]
< 250 nM | CN(C)C/C=C/CNCc1cc(/C=N/C2CC2)ccn1 [Compound 43, N-{[2-({[(2E)-4-(dimethylamino)but-2-en-1-yl]amino}-methyl)pyridin-4-yl]methylidene}-cyclopropanamine]
< 250 nM | C(=N\C1CC1)/c1ccnc(CNCCCCN2CCC2)c1 [Compound 44, N-{[2-({[4-(azetidin-1-yl)butyl]amino}methyl)-pyridin-4-yl]methylidene}-cyclopropanamine]
250 to 2500 nM | CON=Cc1ccnc(CNCCCN(C)C)c1 [Compound 64, [3-(dimethylamino)-propyl]({4-[(methoxyimino)-methyl]pyridin-2-yl}methyl)amine]
< 250 nM | CCN(CC)CCCCNCc1cc(/C=N\CCC2CCCCC2)ccn1 [Compound 67, (2-cyclohexylethyl)-({[2-({[4-(diethylamino)-butyl]amino}methyl)pyridin-4-yl]methylidene})-amine]
< 250 nM | CN(C)CC1CCC(CNCc2cc(C=O)ccn2)CC1 (stereo not drawn) [Compound 97, 2-{[({4-[(dimethylamino)-methyl]cyclohexyl}-methyl)amino]-methyl}pyridine-4-carbaldehyde]

The remaining lines, values behind:

Compound | IC50
CCN(CC)CCCCNCc1cc(CNC(=O)C(F)(F)F)ccn1 [Compound 1, N-{[2-({[4-(diethylamino)butyl]-amino}methyl)pyridin-4-yl]methyl}-2,2,2-trifluoroacetamide] | < 250 nM
CN(C)CCCNCc1cc(CN)ccn1 [Compound 3, [2-({[3-(dimethylamino)propyl]-amino}methyl)pyridin-4-yl]methanamine] | < 250 nM
CCN(CC)CCCCN(Cc1cc(CNC(=O)C(F)(F)F)ccn1)C(=O)C(F)(F)F [Compound 6, N-[4-(diethylamino)butyl]-- 2,2,2-trifluoro-N-({4-[(trifluoroacetamido)-methyl]pyridin-2-yl}methyl)acetamide] | < 250 nM
NCc1ccnc(CNCCCCN2CCC2)c1 [Compound 7, [2-({[4-(azetidin-1-yl)butyl]amino}methyl)-pyridin-4-yl]-methanamine] | < 250 nM
CC(C#N)NCc1ccnc(CNCCCN(C)C)c1 (stereo not drawn) [Compound 22, 2-({[2-({[3-(dimethylamino)propyl]-amino}methyl)pyridin-4-yl]methyl}amino)-propanenitrile] | < 250 nM
CN(C)C(=O)CNCc1cc(/C=N\C2CC2)ccn1 [Compound 33] | 250 to 2500 nM
CN(C)CCCNCc1cc(/C=N/CCN(C)C)ccn1 [Compound 38, ({4-[{[2-(dimethylamino)ethyl]-imino}methyl]pyridin-2-yl}methyl)[3-(dimethylamino)-propyl]amine] | < 250 nM
CCN(CC)C(=O)CNCc1cc(/C=N/CCC2CCCCC2)ccn1 [Compound 57, 2-[({4-[[(2-cyclohexylethyl)imino]-methyl]pyridin-2-yl}methyl)amino]-N,N-diethylacetamide] | 250 to 2500 nM
CCCCCCCC/N=C/c1ccnc(CNCC(=O)N(CC)CC)c1 [Compound 58, N,N-diethyl-2-[({4-[(octylimino)methyl]-pyridin-2-yl}methyl)amino]-acetamide] | > 2500 nM
CCN(CC)CCCCNCc1cc(/C=N/CCO)ccn1 [Compound 61, 2-[{[2-({[4-(diethylamino)-butyl]amino}-methyl)pyridin-4-yl]methylidene}-amino]ethan-1-ol] | < 250 nM
CCN(CC)CCCCNCc1cc(/C=N/CC(F)(F)C(F)(F)F)ccn1 [Compound 62, {[2-({[4-(diethylamino)-butyl]amino}methyl)pyridin-4-yl]methylidene} (2,2,3,3,3-pentafluoropropyl)-amine] | < 250 nM
